Laboratory results from ChEMBL document CHEMBL1201862, “PubChem BioAssay data set” (2004).
Active and inactive are the calls of the source. Rule as the data show it, for most assays here: actives have a measured IC50 and inactives only a lower limit.

How the values were obtained:
Assay type in all cases: functional
[1] = target: T1, Caspase-3 (Homo sapiens, UniProt P42574);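 also: Dose-response selectivity test against caspase-3 for candidate inhibitors of sentrin-specific proteases (SENPs)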
T1 sequence (P42574 whole entry): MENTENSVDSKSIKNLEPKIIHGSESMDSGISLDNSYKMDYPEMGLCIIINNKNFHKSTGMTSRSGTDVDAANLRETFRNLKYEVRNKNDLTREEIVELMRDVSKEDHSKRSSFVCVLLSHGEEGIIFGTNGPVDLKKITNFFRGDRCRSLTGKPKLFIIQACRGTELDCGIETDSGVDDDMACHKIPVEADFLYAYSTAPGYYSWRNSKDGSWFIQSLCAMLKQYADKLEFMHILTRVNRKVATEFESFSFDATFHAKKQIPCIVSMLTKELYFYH

[2] = target: T2, Replicative DNA helicase DnaB (Mycobacterium tuberculosis, UniProt P9WMR3); test: DnaB intein splicing inhibitors, dose response, biochemical, cell-free fluorescence (AID 449749)
T2 sequence (P9WMR3 whole entry): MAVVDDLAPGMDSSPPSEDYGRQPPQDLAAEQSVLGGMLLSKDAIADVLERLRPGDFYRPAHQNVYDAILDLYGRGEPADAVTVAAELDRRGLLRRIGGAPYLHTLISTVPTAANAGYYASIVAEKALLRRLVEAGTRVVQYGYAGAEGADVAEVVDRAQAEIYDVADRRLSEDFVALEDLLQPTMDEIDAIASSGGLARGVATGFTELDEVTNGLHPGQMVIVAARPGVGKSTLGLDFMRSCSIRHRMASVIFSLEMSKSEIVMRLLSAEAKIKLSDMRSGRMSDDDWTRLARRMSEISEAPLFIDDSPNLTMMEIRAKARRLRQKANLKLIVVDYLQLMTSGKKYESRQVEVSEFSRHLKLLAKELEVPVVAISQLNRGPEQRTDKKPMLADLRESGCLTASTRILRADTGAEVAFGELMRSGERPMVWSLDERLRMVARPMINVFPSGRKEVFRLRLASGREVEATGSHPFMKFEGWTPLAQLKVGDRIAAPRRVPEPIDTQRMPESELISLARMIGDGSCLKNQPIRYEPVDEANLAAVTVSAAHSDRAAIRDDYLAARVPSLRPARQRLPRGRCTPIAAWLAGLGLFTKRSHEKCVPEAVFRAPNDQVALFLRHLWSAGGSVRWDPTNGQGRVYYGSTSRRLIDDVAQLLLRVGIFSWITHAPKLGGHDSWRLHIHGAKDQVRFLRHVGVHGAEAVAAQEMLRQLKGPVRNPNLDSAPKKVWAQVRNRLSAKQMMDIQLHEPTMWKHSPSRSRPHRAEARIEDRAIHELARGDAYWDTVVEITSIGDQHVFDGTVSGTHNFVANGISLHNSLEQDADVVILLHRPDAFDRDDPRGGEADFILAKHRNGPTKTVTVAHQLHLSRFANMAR

[3] = target: T3, Apoptotic protease-activating factor 1 (Homo sapiens, UniProt O14727)
T3 sequence (O14727 whole entry): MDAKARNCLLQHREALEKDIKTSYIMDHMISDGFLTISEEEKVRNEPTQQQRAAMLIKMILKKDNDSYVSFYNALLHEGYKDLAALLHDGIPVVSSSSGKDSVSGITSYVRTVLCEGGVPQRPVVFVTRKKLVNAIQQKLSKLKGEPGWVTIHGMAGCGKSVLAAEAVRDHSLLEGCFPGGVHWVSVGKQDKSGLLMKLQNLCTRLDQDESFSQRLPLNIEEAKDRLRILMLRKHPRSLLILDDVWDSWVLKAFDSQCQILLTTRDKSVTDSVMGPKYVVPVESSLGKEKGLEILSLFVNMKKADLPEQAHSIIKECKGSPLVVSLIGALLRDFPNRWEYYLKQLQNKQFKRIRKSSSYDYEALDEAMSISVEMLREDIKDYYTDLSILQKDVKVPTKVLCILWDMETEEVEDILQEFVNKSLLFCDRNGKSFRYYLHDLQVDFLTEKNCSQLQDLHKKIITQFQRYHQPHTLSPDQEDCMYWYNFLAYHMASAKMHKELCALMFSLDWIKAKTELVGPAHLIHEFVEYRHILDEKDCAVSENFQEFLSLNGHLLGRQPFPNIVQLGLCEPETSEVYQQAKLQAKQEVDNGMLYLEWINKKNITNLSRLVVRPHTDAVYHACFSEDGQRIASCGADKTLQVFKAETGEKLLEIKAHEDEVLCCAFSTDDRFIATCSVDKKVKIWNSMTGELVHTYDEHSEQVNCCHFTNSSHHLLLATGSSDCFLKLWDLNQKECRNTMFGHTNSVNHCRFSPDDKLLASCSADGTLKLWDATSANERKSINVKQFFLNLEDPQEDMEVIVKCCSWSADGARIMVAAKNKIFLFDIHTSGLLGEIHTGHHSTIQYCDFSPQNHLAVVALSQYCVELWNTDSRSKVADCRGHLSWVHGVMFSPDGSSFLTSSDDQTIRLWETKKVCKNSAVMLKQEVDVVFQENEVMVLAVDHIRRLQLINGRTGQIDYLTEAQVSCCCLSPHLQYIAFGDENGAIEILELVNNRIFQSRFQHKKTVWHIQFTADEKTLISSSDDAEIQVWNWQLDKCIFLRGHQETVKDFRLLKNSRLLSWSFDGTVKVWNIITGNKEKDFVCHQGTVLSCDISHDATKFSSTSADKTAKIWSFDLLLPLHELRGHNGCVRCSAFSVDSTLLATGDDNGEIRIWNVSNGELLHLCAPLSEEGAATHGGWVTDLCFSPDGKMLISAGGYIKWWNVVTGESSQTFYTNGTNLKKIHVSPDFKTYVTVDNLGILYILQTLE

## O=C(COC(=O)c1ccc([N+](=O)[O-])s1)Nc1ncc(C(F)(F)F)cc1Cl
[1]
  IC50: 10 µM (active)

## Cn1c(=O)[nH]c(=O)c2c1nc([N+](=O)[O-])n2Cc1ccccc1
[2]
  AC50: 26.2 µM (active)

## O=C(NC1(O)C(=O)c2ccccc2C1=O)c1c(Cl)cccc1Cl
[1]
  IC50: > 100 µM (inactive)
[2]
  AC50: 17.3 µM (active)
[3]
  IC50: 2.7 µM (active)

## O=C(NC1(O)C(=O)c2ccccc2C1=O)c1ccc(C(F)(F)F)cc1
[1]
  IC50: 94.5 µM (active)
[3]
  IC50: 2.97 µM (active)

## CCN(c1ccccc1)c1cc2ccccc2c(=O)[nH]1
[1]
  IC50: 2.69 µM (active)
[2]
  AC50: > 380 µM (inactive)
[3]
  IC50: 18.7 µM (active)
